Data as given in patent publication US6017923A, “Carbo-acyclic nucleoside derivatives as antiviral and antineoplastic agents” (Hoechst Marion Roussel, Inc., priority 1996, dated 2000).
Values after ≈ are worked out from the molar mass of the structure shown.

Test system: HeLa cells
Assay: Inhibitory effects of compounds on HeLa cell proliferation in vitro (96 h)
Type: cell-based
Conditions: Homo sapiens, exponentially growing, concentration at 50% inhibition of cell growth
Protocol: INHIBITORY EFFECTS OF COMPOUNDS ON HeLa CELL PROLIFERATION The inhibitory effect of various compounds of formula (1) on HeLa cell proliferation invitro was determined according to the method described by Sunkara et al. [J. Natl. Cancer Instit. 70, 505-509 (1983)]. Exponentially growing HeLa cells were incubated in the presence or absence of various concentrations of test compounds for 96 hours. IC50 values were calculated which represent the test compound concentration at 50% inhibition of cell growth.

Row | IC50 | SMILES
1 | 0.6 µg/mL (≈ 2.74 µM) | C=C(CO)CCn1cnc2c(N)ncnc21 [Compound C, 4-(Adenin-9-yl)-2-hydroxymethylbut-1-ene]
2 | 0.25 µg/mL (≈ 1.05 µM) | Nc1ncnc2c1ncn2CC/C(=C\F)CO [Compound A, (E)-4-(Adenin-9-yl)-2-hydroxymethyl-1-fluorobut-1-ene]
3 | 1 µg/mL (≈ 4.22 µM) | Nc1ncnc2c1ncn2CC/C(=C/F)CO [Compound B, (Z)-4-(Adenin-9-yl)-2-hydroxymethyl-1-fluorobut-1-ene]
